Test results published in ChEMBL document CHEMBL5506002, “The discovery of potent USP2/USP8 dual-target inhibitors for the treatment of breast cancer via structure guided optimization of ML364” (Eur J Med Chem, 2024).

Experiments:
in vitro [1] = conditions: human, microsomes
Description: Stability in human microsomes assessed as compound remaining measured after 30 mins

[2] = Cytotoxicity against human MCF-10A cells assessed as inhibition of cell growth incubated for 72 hrs by MTT assay; format: toxicity, cell-based
in vitro [3] = conditions: mouse, plasma
Description: Stability in mouse plasma assessed as compound remaining measured after 30 mins

in vitro [4] = conditions: mouse, microsomes
Description: Stability in mouse microsomes assessed as compound remaining measured after 30 mins

[5] = target: T1, Ubiquitin carboxyl-terminal hydrolase 8 (Homo sapiens, UniProt P40818); test: Inhibition of N-terminal His6 tagged USP8 (734 to 1110 residues) (unknown origin) expressed in Escherichia coli BL21 (DE3) cells using ubiquitin-rhodamine-110 as substrate preincubated with compound for 30 mins followed by substrate addition measured after 30 mins by fluorometric assay
T1 sequence (P40818 whole entry): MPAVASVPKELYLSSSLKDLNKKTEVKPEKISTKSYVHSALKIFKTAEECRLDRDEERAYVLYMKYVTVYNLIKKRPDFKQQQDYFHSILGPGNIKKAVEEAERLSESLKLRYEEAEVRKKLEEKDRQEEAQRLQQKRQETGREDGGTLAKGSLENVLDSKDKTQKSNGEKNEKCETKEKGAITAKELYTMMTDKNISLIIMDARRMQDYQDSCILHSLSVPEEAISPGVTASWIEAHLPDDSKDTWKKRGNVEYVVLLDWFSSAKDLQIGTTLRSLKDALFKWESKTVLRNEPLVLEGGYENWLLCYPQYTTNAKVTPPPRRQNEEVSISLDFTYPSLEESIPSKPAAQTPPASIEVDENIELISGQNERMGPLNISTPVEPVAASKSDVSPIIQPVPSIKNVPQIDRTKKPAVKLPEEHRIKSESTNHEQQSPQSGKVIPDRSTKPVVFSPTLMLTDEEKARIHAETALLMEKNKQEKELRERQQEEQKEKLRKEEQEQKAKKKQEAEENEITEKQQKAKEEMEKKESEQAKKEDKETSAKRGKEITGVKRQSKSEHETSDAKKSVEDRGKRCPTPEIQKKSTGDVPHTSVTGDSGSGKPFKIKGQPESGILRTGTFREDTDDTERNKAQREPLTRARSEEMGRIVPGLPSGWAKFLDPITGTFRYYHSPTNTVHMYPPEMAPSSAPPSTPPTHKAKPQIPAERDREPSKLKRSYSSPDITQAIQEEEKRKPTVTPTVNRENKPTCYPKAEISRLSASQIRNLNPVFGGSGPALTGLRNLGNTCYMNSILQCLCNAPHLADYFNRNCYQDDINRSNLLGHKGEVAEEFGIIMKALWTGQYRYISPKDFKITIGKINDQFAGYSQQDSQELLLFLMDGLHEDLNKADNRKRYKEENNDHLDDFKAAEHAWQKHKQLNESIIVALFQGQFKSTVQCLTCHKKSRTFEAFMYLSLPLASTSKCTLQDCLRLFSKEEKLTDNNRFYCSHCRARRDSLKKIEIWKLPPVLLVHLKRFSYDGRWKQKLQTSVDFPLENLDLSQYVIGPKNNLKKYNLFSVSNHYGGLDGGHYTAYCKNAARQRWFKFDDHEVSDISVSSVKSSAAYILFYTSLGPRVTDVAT

[6] = target: T2, Ubiquitin carboxyl-terminal hydrolase 2 (Homo sapiens, UniProt O75604); test: Inhibition of USP2 (267 to 599 residues) (unknown origin) expressed in Escherichia coli BL21 (DE3) cells using ubiquitin-rhodamine-110 as substrate preincubated with compound for 30 mins followed by substrate addition measured after 30 mins by fluorometric assay
T2 sequence (O75604 whole entry): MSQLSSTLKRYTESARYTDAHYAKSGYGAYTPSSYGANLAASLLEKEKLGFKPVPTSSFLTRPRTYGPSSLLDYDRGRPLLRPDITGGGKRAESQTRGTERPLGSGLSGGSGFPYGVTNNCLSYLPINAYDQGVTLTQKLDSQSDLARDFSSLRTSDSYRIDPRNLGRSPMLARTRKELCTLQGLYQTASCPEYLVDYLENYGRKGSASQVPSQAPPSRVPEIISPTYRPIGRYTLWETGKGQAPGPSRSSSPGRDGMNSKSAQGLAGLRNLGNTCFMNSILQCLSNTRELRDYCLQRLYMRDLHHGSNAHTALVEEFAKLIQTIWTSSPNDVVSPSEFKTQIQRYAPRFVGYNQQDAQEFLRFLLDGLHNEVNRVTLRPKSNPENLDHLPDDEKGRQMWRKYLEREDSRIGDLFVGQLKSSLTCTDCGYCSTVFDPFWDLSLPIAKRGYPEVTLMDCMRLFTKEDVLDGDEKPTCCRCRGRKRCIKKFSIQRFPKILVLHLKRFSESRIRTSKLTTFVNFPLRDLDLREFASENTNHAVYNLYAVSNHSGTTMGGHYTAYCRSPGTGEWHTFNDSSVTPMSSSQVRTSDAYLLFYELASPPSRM

MCF7 = test: Antiproliferative activity against human MCF7 cells assessed as inhibition of cell growth incubated for 72 hrs by MTT assay; format: functional, cell-based; conditions: MCF7, 72 h
[7] = target: T1, Ubiquitin carboxyl-terminal hydrolase 8; test: Inhibition of USP8 (unknown origin) using Di-Ub IQF K48-02 as substrate preincubated for 30 mins followed by substrate addition by high-throughput assay
[8] = target: T2, Ubiquitin carboxyl-terminal hydrolase 2; test: Inhibition of USP2 (unknown origin) using Di-Ub IQF K48-4 as substrate preincubated for 10 mins followed by substrate addition by high-throughput assay

| remaining at 0.5 h (in vitro [1]) | remaining at 0.5 h (in vitro [3]) | remaining at 0.5 h (in vitro [4]) | IC50 [5] | IC50 [6] | IC50 (MCF7) | IC50 [7] | IC50 [8] | SMILES | IC50 at 72 h [2] |
| --- | --- | --- | --- | --- | --- | --- | --- | --- | --- |
| > 90% | > 90% | 72% | 4.7 µM | 3.6 µM | 9.3 µM | – | – | Cc1ccc(S(=O)(=O)Nc2cc(C(F)(F)F)ccc2C(=O)Nc2nc(-c3ccccc3)cs2)cc1 | 14.5 µM |
| – | – | – | – | – | – | < 0.1 µM | < 0.8 µM | CCCCS(=O)(=O)Cc1nc2c(nc1CS(=O)(=O)CCCC)C(=O)c1ccccc1C2=O | – |
